Reference: US20250041279A1, “THERAPEUTIC MEDICINE FOR HEART DISEASE OR SKELETAL MUSCLE DISEASE” (SHIONOGI & CO., LTD., priority 2021, published 2025)
Where two headings read alike, the source gives them in different places.

Legend:
recombinant human ACC1 = recombinant human ACC1 (Homo sapiens (Human), UniProt Q13085); test: Measurement of inhibitory activity of human ACC1 (MALDI-TOF MS); assay type: biochemical; settings: read-out: IC50 hACC1
From the text: A cDNA encoding human ACC1 protein (1 amino acid residue to 2346 amino acid residues from the N-terminus) was cloned from a human liver cDNA library (BioChain Institute Inc.), myc tag and His-tag sequences were introduced at the 3′ end, and then inserted into pIEXBAC3 (Novagen). A recombinant baculovirus was produced in accordance with the protocol for Flash BACGOLD (Oxford Expression Technologies Ltd.), and Sf-9 cells were infected therewith to express human ACC1 protein. The recovered cells were crushed, filtered through a filter, and then subjected to Ni affinity chromatography and anion exchange chromatography. Fractions containing human ACC1 protein were collected to obtain recombinant human ACC1.
The recombinant human ACC1 and the recombinant human ACC2 obtained from the above Preparation Examples were preincubated in an assay buffer (50 mM HEPES-KOH (pH 7.4), 10 mM magnesium chloride, 6 to 10 mM potassium citrate, 4 mM glutathione reduced form, and 1.5 mg/ml bovine serum albumin) for 1 hour. Then, 5 μL of the pre-incubated enzyme solution and 5 μL of a substrate solution (50 mM HEPES-KOH (pH 7.4), 1 mM ATP, 0.8 mM acetyl-CoA, and 25 to 50 mM potassium bicarbonate) were added to a 384-well microplate into which 0.2 μl of each of solutions of the compound of the present invention (DMSO had been dispensed, and the mixture was centrifuged and shaken, and then incubated in a wet box at room temperature for 1 to 3 hours. After incubation, the enzymatic reaction was stopped by addition of EDTA, and then the sample was co-crystallized with an α-cyano-4-hydroxy cinnamic acid (CHCA) matrix on a MALDI target plate, and measurement was performed in a reflector negative mode using a matrix-assisted laser desorption ionization-time-of-flight mass spectrometer (MALDI-TOF MS). Deprotonated ions of the substrate acetyl-CoA (AcCoA) and the reaction product malonyl-CoA (MalCoA) were detected, and the intensity of each signal was used to calculate a conversion rate to malonyl-CoA or succinyl-CoA, i.e., intensity of [MalCoA-H]—/(intensity of [MalCoA-H]-+intensity of [AcCoA.H].). […] The potassium citrate concentration in the assay buffer, the potassium bicarbonate concentration in the substrate solution, and the incubation time were adjusted within the above concentrations or reaction times for each lot of the enzyme to be used.

[1] = Metabolic stability test, rat; assay type: in vitro ADME; settings: 30 minutes
[2] = Metabolic stability test, human liver microsomes; assay type: in vitro ADME; settings: 37° C., 30 minutes, NADPH
Procedure: Commercially available pooled human liver microsomes were reacted with the compound of the present invention for a given time. A residual rate was calculated by comparison between the reacted sample and the unreacted sample to evaluate a degree at which the compound of the present invention is metabolized in the liver.
The compound was reacted at 37° C. for 0 minutes or 30 minutes in the presence of 1 mmol/L NADPH in 0.2 mL of a buffer (50 mmol/L Tris-HCl pH 7.4, 150 mmol/L potassium chloride, and 10 mmol/L magnesium chloride) containing 0.5 mg protein/mL of the human liver microsomes (oxidative reaction). After the reaction, 50 μL of the reaction solution was added to 100 μL of a solution of methanol/acetonitrile=1/1 (v/v) and mixed, and the mixture was centrifuged at 3000 rpm for 15 minutes. The compound of the present invention in the centrifuged supernatant was quantified by LC/MS/MS or solid-phase extraction (SPE)/MS. The amount of the compound of the present invention remained after the reaction was calculated with the amount of the compound at 0 minutes of the reaction defined as 100%.

recombinant human ACC2 = recombinant human ACC2 (Homo sapiens (Human), UniProt O00763); test: Measurement of inhibitory activity of human ACC2 (MALDI-TOF MS); assay type: biochemical; settings: read-out: IC50 hACC2
From the text: A cDNA encoding human ACC2 protein (27 amino acid residues to 2458 amino acid residues from the N-terminus) was cloned from a human kidney cDNA library (Clontech Laboratories, Inc.), a His-tag sequence was introduced at the 5′ end, and then inserted into pFastBac1 (Invitrogen). A recombinant baculovirus was produced in accordance with the protocol for a Bac-to-Bac baculovirus expression system (Invitrogen), and Sf-9 cells were infected therewith to express human ACC2 protein. The recovered cells were crushed, filtered through a filter, and then subjected to Ni affinity chromatography and anion exchange chromatography. Fractions containing human ACC2 protein were collected to obtain recombinant human ACC2.
The recombinant human ACC1 and the recombinant human ACC2 obtained from the above Preparation Examples were preincubated in an assay buffer (50 mM HEPES-KOH (pH 7.4), 10 mM magnesium chloride, 6 to 10 mM potassium citrate, 4 mM glutathione reduced form, and 1.5 mg/ml bovine serum albumin) for 1 hour. […] Deprotonated ions of the substrate acetyl-CoA (AcCoA) and the reaction product malonyl-CoA (MalCoA) were detected, and the intensity of each signal was used to calculate a conversion rate to malonyl-CoA or succinyl-CoA, i.e., intensity of [MalCoA-H]—/(intensity of [MalCoA-H]-+intensity of [AcCoA.H].). […] The potassium citrate concentration in the assay buffer, the potassium bicarbonate concentration in the substrate solution, and the incubation time were adjusted within the above concentrations or reaction times for each lot of the enzyme to be used.

NAFLD patients = settings: cited from earlier work
healthy subjects = settings: repeated administration to healthy subjects; cited from earlier work

Sequence of recombinant human ACC2 (O00763 27-2458): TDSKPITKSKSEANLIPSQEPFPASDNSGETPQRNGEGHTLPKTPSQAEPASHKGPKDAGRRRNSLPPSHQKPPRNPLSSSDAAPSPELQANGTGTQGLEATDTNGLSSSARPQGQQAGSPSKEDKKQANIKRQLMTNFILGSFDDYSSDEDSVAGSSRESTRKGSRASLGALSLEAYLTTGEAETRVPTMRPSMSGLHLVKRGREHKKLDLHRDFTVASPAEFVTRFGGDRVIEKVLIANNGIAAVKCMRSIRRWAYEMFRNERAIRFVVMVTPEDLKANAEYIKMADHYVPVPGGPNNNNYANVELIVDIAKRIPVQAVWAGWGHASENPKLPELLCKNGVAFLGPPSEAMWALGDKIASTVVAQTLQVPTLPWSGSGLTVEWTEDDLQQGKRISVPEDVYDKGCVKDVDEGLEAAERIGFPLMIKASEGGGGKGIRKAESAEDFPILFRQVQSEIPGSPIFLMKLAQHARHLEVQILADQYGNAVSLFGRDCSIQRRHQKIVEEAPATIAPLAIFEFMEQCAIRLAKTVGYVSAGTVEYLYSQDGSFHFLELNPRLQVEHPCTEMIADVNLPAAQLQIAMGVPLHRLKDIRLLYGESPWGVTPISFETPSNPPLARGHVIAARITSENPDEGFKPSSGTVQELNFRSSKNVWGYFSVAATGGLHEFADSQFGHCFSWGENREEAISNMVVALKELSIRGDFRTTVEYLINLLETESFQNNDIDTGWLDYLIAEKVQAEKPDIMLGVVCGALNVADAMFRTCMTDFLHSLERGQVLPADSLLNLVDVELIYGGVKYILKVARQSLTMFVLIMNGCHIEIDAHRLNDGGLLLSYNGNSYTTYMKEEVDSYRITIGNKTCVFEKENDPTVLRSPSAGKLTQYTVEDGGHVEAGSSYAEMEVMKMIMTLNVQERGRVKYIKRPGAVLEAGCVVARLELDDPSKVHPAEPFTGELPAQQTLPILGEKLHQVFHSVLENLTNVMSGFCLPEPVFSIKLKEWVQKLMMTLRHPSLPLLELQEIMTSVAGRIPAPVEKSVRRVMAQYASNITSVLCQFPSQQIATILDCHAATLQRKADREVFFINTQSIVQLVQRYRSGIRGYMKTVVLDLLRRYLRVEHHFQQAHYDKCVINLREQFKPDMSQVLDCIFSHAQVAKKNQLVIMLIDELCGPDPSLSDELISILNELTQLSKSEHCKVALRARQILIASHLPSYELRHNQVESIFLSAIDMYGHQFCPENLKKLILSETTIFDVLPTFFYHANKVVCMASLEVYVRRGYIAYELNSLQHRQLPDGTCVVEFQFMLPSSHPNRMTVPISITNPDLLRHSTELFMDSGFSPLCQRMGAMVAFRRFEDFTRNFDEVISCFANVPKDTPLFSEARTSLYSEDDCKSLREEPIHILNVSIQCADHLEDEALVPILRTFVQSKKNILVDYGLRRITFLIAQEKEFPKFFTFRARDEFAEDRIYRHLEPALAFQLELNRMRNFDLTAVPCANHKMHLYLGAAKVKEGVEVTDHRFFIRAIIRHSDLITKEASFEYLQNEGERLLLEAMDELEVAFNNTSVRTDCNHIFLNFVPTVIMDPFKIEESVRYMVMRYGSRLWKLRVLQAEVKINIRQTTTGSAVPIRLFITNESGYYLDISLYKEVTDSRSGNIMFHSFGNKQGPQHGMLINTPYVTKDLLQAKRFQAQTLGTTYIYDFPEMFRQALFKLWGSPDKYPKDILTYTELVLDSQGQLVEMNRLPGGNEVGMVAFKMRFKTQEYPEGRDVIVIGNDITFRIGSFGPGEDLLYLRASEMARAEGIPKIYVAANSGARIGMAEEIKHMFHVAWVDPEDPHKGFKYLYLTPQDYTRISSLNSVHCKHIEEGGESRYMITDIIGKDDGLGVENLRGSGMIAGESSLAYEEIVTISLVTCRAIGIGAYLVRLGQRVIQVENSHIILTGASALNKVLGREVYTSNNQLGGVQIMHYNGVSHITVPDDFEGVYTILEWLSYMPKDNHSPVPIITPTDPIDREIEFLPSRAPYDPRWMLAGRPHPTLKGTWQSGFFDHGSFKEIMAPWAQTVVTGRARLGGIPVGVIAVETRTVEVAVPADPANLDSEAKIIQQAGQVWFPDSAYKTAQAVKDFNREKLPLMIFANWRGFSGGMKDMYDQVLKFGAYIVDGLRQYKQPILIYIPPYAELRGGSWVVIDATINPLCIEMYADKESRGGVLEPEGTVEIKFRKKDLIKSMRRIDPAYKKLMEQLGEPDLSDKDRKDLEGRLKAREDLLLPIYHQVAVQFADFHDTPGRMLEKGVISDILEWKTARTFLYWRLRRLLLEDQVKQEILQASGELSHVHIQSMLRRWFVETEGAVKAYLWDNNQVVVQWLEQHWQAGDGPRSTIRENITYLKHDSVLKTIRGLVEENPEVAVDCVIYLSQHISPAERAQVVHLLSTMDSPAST

| SMILES | IC50 (recombinant human ACC1) [µM] | Remaining amount of compound, Rat [1] [%] | Remaining amount of compound, Human [2] [%] | IC50 (recombinant human ACC2) [nM] | Plasma triglyceride concentration (NAFLD patients) | platelet concentration (healthy subjects) | Plasma triglyceride concentration (NAFLD patients; phase II study over 12 weeks) |
| --- | --- | --- | --- | --- | --- | --- | --- |
| CC(=O)N[C@@H](C)COC1CCC(Oc2nc3c(F)cc(OC4CCC4)cc3n2C)CC1 (stereo partly drawn) [Compound I-1] | 0.32 | – | – | – | – | – | – |
| Cn1c(OC2CCC(OC[C@H](CF)NC(N)=O)CC2)nc2c(F)cc(OC3CC3)cc21 (stereo partly drawn) [Compound I-5] | 6.9 | 83.4 | 98.9 | 8.9 | – | – | – |
| C[C@@H](COC1CCC(Oc2nc3c(Cl)cc(OC4CC4)cc3n2C)CC1)NC(N)=O (stereo partly drawn) [Compound I-8] | 6.2 | 85.4 | 83.6 | 17 | – | – | – |
| CC(=O)N[C@@H](C)CC(F)(F)[C@@H]1CCC(Oc2nc3c(F)cc(OCC(F)F)c(F)c3n2C)CO1 (stereo partly drawn) [Compound I-10] | > 100 | – | – | 89 | – | – | – |
| COc1cc(C(=O)N2CCC3(CC2)CC(=O)c2cc(-c4cncc(C(=O)O)c4)ccc2O3)cc2c1c(C)cn2C1CC1 [MK-4074] | – | – | – | – | elevated | – | – |
| Cc1nc2ccc(C(=O)N3CCC4(CC3)CC(=O)c3c(cnn3C(C)C)C4)cc2[nH]1 [PF-05175157] | – | – | – | – | – | reduced | – |
| COc1ccccc1[C@H](Cn1c(=O)n(C(C)(C)C(=O)O)c(=O)c2c(C)c(-c3ncco3)sc21)OC1CCOCC1 [firsocostat] | – | – | – | – | – | – | elevated |

Second part, led by results:

| IC50 (recombinant human ACC1) [µM] | Remaining amount of compound, Rat [1] [%] | Remaining amount of compound, Human [2] [%] | IC50 (recombinant human ACC2) [nM] | SMILES | Plasma triglyceride concentration (NAFLD patients) | platelet concentration (healthy subjects) | Plasma triglyceride concentration (NAFLD patients; phase II study over 12 weeks) |
| --- | --- | --- | --- | --- | --- | --- | --- |
| 2.8 | 82.6 | 80.3 | – | CC(=O)N[C@@H](C)COC1CCC(Oc2nc3c(Cl)cc(OC4CC4)cc3n2C)CC1 (stereo partly drawn) [Compound I-3] | – | – | – |
| 2.7 | 87.3 | 93.4 | 4.7 | CC(=O)N[C@@H](CF)COC1CCC(Oc2nc3c(F)cc(OC4CC4)cc3n2C)CC1 (stereo partly drawn) [Compound I-4] | – | – | – |
| 25 | 74.7 | 89.1 | 180 | CC(=O)N[C@@H](C)C(F)(F)C[C@H]1CCC(Oc2nc3c(F)cc(OCC(F)F)c(F)c3n2C)CO1 (stereo partly drawn) [Compound I-7] | – | – | – |
| 7 | 94.5 | 95.8 | 9.6 | C[C@@H](CCC1OCC(Oc2nc3c(F)cc(OCC(F)F)c(F)c3n2C)CO1)NC(N)=O (stereo partly drawn) [Compound I-11] | – | – | – |
| 1.7 | 76.2 | 80.2 | 3.8 | CC(=O)N[C@@H](C)CCC1CCC(Oc2nc3c(F)cc(OC4CC4)cc3n2C)CC1 (stereo partly drawn) [Compound I-15] | – | – | – |
